Target: T1, recombinant human NK3 receptor (Homo sapiens, UniProt P29371)
T1 construct: expressed in transfected cells; host or cells: HEK293 cells (transient expression), membrane preparation
T1 sequence (P29371 1-465): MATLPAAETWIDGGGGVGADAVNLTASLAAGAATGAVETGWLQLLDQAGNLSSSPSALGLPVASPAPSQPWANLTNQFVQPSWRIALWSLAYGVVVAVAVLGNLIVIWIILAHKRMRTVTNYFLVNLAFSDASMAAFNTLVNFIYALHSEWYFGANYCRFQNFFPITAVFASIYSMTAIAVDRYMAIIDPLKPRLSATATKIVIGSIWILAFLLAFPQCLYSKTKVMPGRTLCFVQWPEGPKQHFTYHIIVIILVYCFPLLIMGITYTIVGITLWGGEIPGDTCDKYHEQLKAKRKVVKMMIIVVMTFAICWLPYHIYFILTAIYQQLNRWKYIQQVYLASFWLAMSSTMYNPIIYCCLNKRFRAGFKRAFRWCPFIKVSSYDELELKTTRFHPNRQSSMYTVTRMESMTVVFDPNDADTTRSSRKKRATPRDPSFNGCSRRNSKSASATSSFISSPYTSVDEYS
Test: [3H]SR142801 competition binding assay
Details: membrane from HEK293 cells transiently expressing recombinant human NK3 receptor; radioligand [3H]SR142801; 75 min at RT
Description: [^3H]SR142801 Competition Binding Assay
hNK3 receptor binding experiment were performed using [^3H]SR142801 (Catalog No. TRK1035, specific activity: 74.0 Ci/mmol, Amersham, GE Healthcare UK limited, Buckinghamshire, UK) and membrane isolated from HEK293 cells transiently expressing recombinant human NK3 receptor. After thawing, the membrane homogenates were centrifuged at 48,000×g for 10 min at 4° C., the pellets were resuspended in the 50 mM Tris-HCl, 4 mM MnCl2, 1 μM phosphoramidon, 0.1% BSA binding buffer at pH 7.4 to a final assay concentration of 5 μg protein/well. […] At the end of the incubation, membranes were filtered onto unitfilter (96-well white microplate with bonded GF/C filter preincubated 1 h in 0.3% PEI+0.3% BSA, Packard BioScience, Meriden, Conn.) with a Filtermate 196 harvester (Packard BioScience) and washed 4 times with ice-cold 50 mM Tris-HCl, pH 7.4 buffer. Nonspecific binding was measured in the presence of 10 μM SB222200 for both radioligands. The radioactivity on the filter was counted (5 min) on a Packard Top-count microplate scintillation counter with quenching correction after addition of 45 μl of microscint 40 (Canberra Packard S.A., Zürich, Switzerland) and shaking for 1 h. Inhibition curves were fitted according to the Hill equation: y=100/(1+(x/IC50)^nH), where nH=slope factor using Excel-fit 4 software (Microsoft). IC50 values were derived from the inhibition curve and the affinity constant (Ki) values were calculated using the Cheng-Prussoff equation Ki=IC50/(1+[L]/KD) where [L] is the concentration of radioligand and KD is its dissociation constant at the receptor, derived from the saturation isotherm. All experiments were performed in duplicate and the mean±standard error (SEM) of the individual Ki values was calculated.

Compound | Ki [nM]
COc1cc2nc(N3CCC(Cc4ccccc4)(C(=O)N(C)Cc4ccccc4)CC3)nc(O)c2cc1OC [Example 54, 4-Benzyl-1-(4-hydroxy-6,7-dimethoxy-quinazolin-2-yl)-piperidine-4-carboxylic acid benzyl-methyl-amide] | 4.8
COc1cc2nc(N3CCC(Cc4ccccc4)(C(=O)NC4Cc5ccccc5C4)CC3)nc(O)c2cc1OC [Example 55, 4-Benzyl-1-(4-hydroxy-6,7-dimethoxy-quinazolin-2-yl)-piperidine-4-carboxylic acid indan-2-ylamide] | 11.1
COc1cc2nc(N3CCC(Cc4ccccc4)(C(=O)N(C)C4Cc5ccccc5C4)CC3)nc(O)c2cc1OC [Example 57, 4-Benzyl-1-(4-hydroxy-6,7-dimethoxy-quinazolin-2-yl)-piperidine-4-carboxylic acid indan-2-yl-methyl-amide] | 62.8
COc1cc2nc(N3CCC(Cc4ccccc4)(C(=O)NC4CCc5ccccc5C4)CC3)nc(O)c2cc1OC (stereo not shown) [Example 58, 4-Benzyl-1-(4-hydroxy-6,7-dimethoxy-quinazolin-2-yl)-piperidine-4-carboxylic acid (1,2,3,4-tetrahydro-naphthalen-2-yl)-amide] | 3.8
COc1cc2nc(N3CCC(Cc4ccccc4)(C(=O)Nc4cnn(C)c4)CC3)nc(O)c2cc1OC [Example 59, 4-Benzyl-1-(4-hydroxy-6,7-dimethoxy-quinazolin-2-yl)-piperidine-4-carboxylic acid (1-methyl-1H-pyrazol-4-yl)-amide] | 39.1
COc1cc2nc(N3CCC(Cc4ccccc4)(C(=O)NC4Cc5cc(Cl)ccc5C4O)CC3)nc(O)c2cc1OC (stereo not shown) [Example 65, 4-Benzyl-1-(4-hydroxy-6,7-dimethoxy-quinazolin-2-yl)-piperidine-4-carboxylic acid (5-chloro-1-hydroxy-indan-2-yl)-amide] | 51.6
COc1cc2nc(N3CCC(Cc4ccccc4)(C(=O)NCC4CCC4)CC3)nc(O)c2cc1OC [Example 67, 4-Benzyl-1-(4-hydroxy-6,7-dimethoxy-quinazolin-2-yl)-piperidine-4-carboxylic acid cyclobutylmethyl-amide] | 47.9
COc1cc2nc(N3CCC(Cc4ccccc4)(C(=O)NC4CCc5ccccc5C4O)CC3)nc(O)c2cc1OC (stereo not shown) [Example 68, 4-Benzyl-1-(4-hydroxy-6,7-dimethoxy-quinazolin-2-yl)-piperidine-4-carboxylic acid (1-hydroxy-1,2,3,4-tetrahydro-naphthalen-2-yl)-amide] | 83.9
COc1cc2nc(N3CCC(CC(C)C)(C(=O)NCc4ccccc4)CC3)nc(N)c2cc1OC [Example 70, 1-(4-Amino-6,7-dimethoxy-quinazolin-2-yl)-4-isobutyl-piperidine-4-carboyxlic acid benzylamide] | 64
COc1cc2nc(N3CCC(CC4CC4)(C(=O)NCc4ccccc4)CC3)nc(O)c2cc1OC [Example 72, 4-Cyclopropylmethyl-1-(4-hydroxy-6,7-dimethoxy-quinazolin-2-yl)-piperidine-4-carboxylic acid benzylamide] | 38.3
COc1cc2nc(N3CCC(CC4CC4)(C(=O)N(C)Cc4ccccc4)CC3)nc(O)c2cc1OC [Example 75, 4-Cylcopropylmethyl-1-(4-hydroxy-6,7-dimethoxy-quinazolin-2-yl)-piperidine-4-carobxylic acid benzyl-methyl-amide] | 47.8
COc1cc2nc(N3CCC(CC4CCC4)(C(=O)NCc4ccccc4)CC3)nc(O)c2cc1OC [Example 76, 4-Cyclobutylmethyl-1-(4-hydroxy-6,7-dimethoxy-quinazolin-2-yl)-piperidine-4-carboxylic acid benzylamide] | 5.8
COc1cc2nc(N3CCC(CC4CCC4)(C(=O)NC4CCc5ccccc5C4)CC3)nc(O)c2cc1OC (stereo not shown) [Example 77, 4-Cylcobutylmethyl-1-(4-hydroxy-6,7-dimethoxy-quinazolin-2-yl)-piperidine-4-carboxylic acid (1,2,3,4-tetrahydro-naphthalen-2-yl)-amide] | 36.2
COc1cc2nc(N3CCC(CC4CCC4)(C(=O)NC4CCCC4)CC3)nc(O)c2cc1OC [Example 78, 4-Cyclobutylmethyl-1-(4-hydroxy-6,7-dimethoxy-quinazolin-2-yl)-piperidine-4-carboxylic acid cyclopentylamide] | 66
COc1cc2nc(N3CCC(CC4CCC4)(C(=O)NC4Cc5ccccc5C4)CC3)nc(O)c2cc1OC [Example 79, 4-Cyclobutylmethyl-1-(4-hydroxy-6,7-dimethoxy-quinazolin-2-yl)-piperidine-4-carboxylic acid indan-2-ylamide] | 83
COc1cc2nc(N3CCC(CC4CCC4)(C(=O)N(C)Cc4ccccc4)CC3)nc(O)c2cc1OC [Example 80, 4-Cyclobutylmethyl-1-(4-hydroxy-6,7-dimethoxy-quinazolin-2-yl)-piperidine-4-carboxylic acid benzyl-methyl-amide] | 7.6
CC(C)Oc1ccc2nc(N3CCC(Cc4ccccc4)(C(=O)NCc4ccccc4)CC3)nc(O)c2c1 [Example 83, 4-Benzyl-1-(4-hydroxy-6-isopropoxy-quinazolin-2-yl)-piperidine-4-carboxylic acid benzylamide] | 97.5
COc1cc2nc(N3CCC(Cc4ccccc4)(C(=O)NCc4ccccc4)CC3)nc(O)c2cc1F [Example 88, 4-Benzyl-1-(6-fluoro-4-hydroxy-7-methoxy-quinazolin-2-yl)-piperidine-4-carboxylic acid benzylamide] | 9.3
O=C(NCc1ccccc1)C1(Cc2ccccc2)CCN(c2nc(O)c3ccc(OC(F)F)cc3n2)CC1 [Example 89, 4-Benzyl-1-(7-difluoromethoxy-4-hydroxy-quinazolin-2-yl)-piperidine-4-carboxylic acid benzylamide] | 11.5
COc1cc2nc(N3CCC(Cc4ccccc4)(C(=O)NCc4ccccc4)CC3)nc(O)c2cc1C [Example 90, 4-Benzyl-1-(4-hydroxy-7-methoxy-6-methyl-quinazolin-2-yl)-piperidine-4-carboxylic acid benzylamide] | 13.3
COc1cc2nc(N3CCC(Cc4ccccc4)(C(=O)NCc4ccccc4)CC3)nc(O)c2cc1OC(C)C [Example 91, 4-Benzyl-1-(4-hydroxy-6-isopropoxy-7-methoxy-quinazolin-2-yl)-piperidine-4-carboxylic acid benzylamide] | 5.4
COc1cc2c(O)nc(N3CCC(Cc4ccccc4)(C(=O)NCc4ccccc4)CC3)nc2cc1OC(C)C [Example 92, 4-Benyzl-1-(4-hydroxy-7-isopropoxy-6-methoxy-quinazolin-2-yl)-piperidine-4-carboxylic acid benzylamide] | 21.5
COc1cc2nc(N3CCC(Cc4ccccc4)(C(=O)NCc4ccccc4)CC3)nc(O)c2cc1Cl [Example 93, 4-Benzyl-1-(6-chloro-4-hydroxy-7-methoxy-quinazolin-2-yl)-piperidine-4-carboxylic acid benzylamide] | 9.2
CCOc1cc2nc(N3CCC(Cc4ccccc4)(C(=O)NCc4ccccc4)CC3)nc(O)c2cc1OC(F)F [Example 94, 4-Benzyl-1-(6-difluoromethoxy-7-ethoxy-4-hydroxy-quinazolin-2-yl)-piperidine-4-carboxylic acid benzylamide] | 8.3
COc1ccc2c(O)nc(N3CCC(Cc4ccccc4)(C(=O)NCc4ccccc4)CC3)nc2c1 [Example 95, 4-Benzyl-1-(4-hydroxy-7-methoxy-quinazolin-2-yl)-piperidine-4-carboxylic acid benzylamide] | 5.1
CC(C)Oc1ccc2c(O)nc(N3CCC(Cc4ccccc4)(C(=O)NCc4ccccc4)CC3)nc2c1 [Example 96, 4-Benzyl-1-(4-hydroxy-7-isopropoxy-quinazolin-2-yl)-piperidine-4-carboxylic acid benzylamide] | 11.2
COc1cc2nc(N3CCC(Cc4ccccc4)(C(=O)NCc4ccccc4)CC3)nc(O)c2cc1C#N [Example 97, 4-Benzyl-1-(6-cyano-4-hydroxy-7-methoxy-quinazolin-2-yl)-piperidine-4-carboxylic acid benzylamide] | 15.8
O=C(NCc1ccccc1)C1(Cc2ccccc2)CCN(c2nc(O)c3ccc(C(F)(F)F)cc3n2)CC1 [Example 98, 4-Benzyl-1-(4-hydroxy-7-trifluoromethyl-quinazolin-2-yl)-piperidine-4-carboxylic acid benzylamide] | 6.1
